# Source: patent US20230271959A1, “HETEROCYCLIC COMPOUND AS BCL-2 INHIBITOR” (Beijing Innocare Pharma Tech Co., Ltd., priority 2020, published 2023)
# Key:
# [1] = target: T1, human recombinant Bcl-2 protein (Homo sapiens, UniProt P10415); assay: Fluorescence polarization test for inhibition of BCL-2 binding to FITC-BIM; conditions: 5 nM BCL-2, 5 nM FITC-BIM, read-out: FP BCL-2 IC50
# T1 construct: purchased Beijing Yigiao Shenzhou Biotechnology Co., Ltd. 10195-HOSE
# Description: Fluorescence polarization assay was used to evaluate the effect of the compounds of the present invention on the biological activity of BCL-2.
# The effects of the compounds on the biological activity of BCL-2 were evaluated by determining the effects of the compounds on the binding activity of BCL-2 to leukemia pro-apoptotic protein (BIM) using an affinity assay method based on the principle of fluorescence polarization. The reaction buffer comprises the following components: PBS (pH 7.4, 3 mM Na2HPO4, 155 mM NaCl, 1 mM KH2PO4), 1 mM DTT; human recombinant Bcl-2 protein (Item No. 10195-HOSE) (purchased from Beijing Yigiao Shenzhou Biotechnology Co., Ltd.) was diluted to 5 nM with the reaction buffer; FITC-labeled BIM polypeptide (purchased from Nanjing GenScript Biotechnology Co., Ltd.) was diluted to 5 nM with the reaction buffer.
# The compounds were dissolved in 100% DMSO and diluted to 0.1, 1, 10 μM, followed by 4-fold serial dilutions with DMSO to a minimum concentration of 0.0061, 0.061, 0.61 nM, each concentration point was further diluted 50-fold with the reaction buffer.
# 3 μL of solution containing the compound and 12 μL of solution containing BCL-2 were added to the black 384-well assay plate, mixed well, and incubated at room temperature for 15 minutes. Subsequently, 15 μL of FITC-BIM solution was added, and the reaction mixture was incubated at room temperature for 30 minutes in dark place, and then the fluorescence polarization was detected immediately on an Envision multi-mode reader (Perkin Elmer), with 480 nm as the excitation wavelength and 535 nm as the emission wavelength. In this experiment, the group without BCL-2 protein was used as a negative control (100% inhibition), and the group with BCL-2 protein but without the compound was used as a positive control (0% inhibition). The inhibition percentage of the compound to the affinity of BCL-2 can be calculated using the following equation: […]
# (§1) The IC50 of the compound was calculated from 8 concentration points using XLfit (ID Business Solutions Ltd., UK) software by the following equation:
# (§2) Y=Bottom+(Top−Bottom)/(1+10^((log IC50−X)*slope factor))
# (§3) where Y is the inhibition percentage, X is the logarithm of the concentration of the compound to be tested, Bottom is the maximum inhibition percentage, Top is the minimum inhibition percentage, and slope factor is the slope coefficient of the curve.
# [2] = target: T2, human recombinant Bcl-XL protein (Homo sapiens, UniProt Q07817); assay: Fluorescence polarization test for inhibition of BCL-XL binding to FITC-BIM; conditions: 10 nM BCL-XL, 10 nM FITC-BIM, read-out: FP BCL-XL IC50
# T2 construct: purchased Beijing Yiqiao Shenzhou Biotechnology Co., Ltd. 10455-H0SE
# Description: Fluorescence polarization assay was used to evaluate the effect of the compounds of the present invention on the biological activity of BCL-XL.
# The effects of the compounds on the biological activity of BCL-XL were evaluated by detecting the effects of the compounds on the binding activity of BCL-XL to BIM using an affinity assay method based on the principle of fluorescence polarization. The reaction buffer contains the following components: PBS (pH 7.4, 3 mM Na2HPO4, 155 mM NaCl, 1 mM KH2PO4), 1 mM DTT; human recombinant Bcl-XL protein (Item No. 10455-H0SE) (purchased from Beijing Yiqiao Shenzhou Biotechnology Co., Ltd.) was diluted to 10 nM with reaction buffer; FITC-labeled BIM polypeptide (purchased from Nanjing GenScript Biotechnology Co., Ltd) was diluted to 10 nM with reaction buffer.
# The compounds were dissolved in 100% DMSO and diluted to 1 μM, followed by 4-fold serial dilutions in DMSO to a minimum concentration of 0.061 nM, each concentration point was further diluted 50-fold with reaction buffer.
# 3 μL of solution containing the compound and 12 μL of solution containing BCL-XL were added to the black 384-well assay plate, mixed well, and incubated at room temperature for 15 minutes. Subsequently, 15 μL of FITC-BIM solution was added, and the reaction mixture was incubated at room temperature for 30 minutes in the dark place, and then the fluorescence polarization was detected immediately on an Envision multi-plate reader (Perkin Elmer), with 480 nm as the excitation wavelength and 535 nm as the emission wavelength. In this experiment, the group without BCL-XL protein was used as a negative control (100% inhibition), and the group with BCL-XL protein but without the compound was added as a positive control (0% inhibition). The inhibition percentage of the compound to the affinity of BCL-XL can be calculated using the following equation: […]
# as §1, §2, §3
# [3] = tested on: RS4;11 cells (acute lymphoblastic leukemia cells); assay: RS4;11 cell proliferation, CellTilter-Glo luminescence cell viability assay; format: cell-based; conditions: Homo sapiens, RS4-11; CTG readout after 48 hours
# Description: The effects of the compounds of the present invention on the proliferation of RS4;11 cells were evaluated using a luminescence cell viability assay.
# A CellTilter-Glo (CTG) Assay Kit is used to detect ATP, a key indicator of the metabolism of living cells, through a unique, highly sensitive and stable luciferase. The luminescent signal generated in the assay is proportional to the number of the viable cells in the medium, therefore the cell proliferation of RS4;11 can be determined.
# CellTilter-Glo reagent (Promega, G7572) is composed of CellTilter-Glo lyophilized powder and CellTilter-Glo buffer, and the lyophilized powder can be dissolved in the buffer for use.
# RS4;11 cells (ATCC, CRL-1873) were cultured in RPMI1640 complete medium (Thermofisher, 72400-047) containing 10% FBS (GBICO, 10099-141) and 100 units/ml penicillin-streptomycin solution (Thermofisher, 15140122)), when the cells covered 80-90% in the culture vessel, they were digested and dispersed with 0.25% trypsin (containing EDTA) (Thermofisher, 25200056) and then planted in a white 384-well plate (Thermofisher, 164610), and then the 384-well plate was incubated overnight in a 37° C., 5% CO2 incubator. Compounds were dissolved in 100% DMSO and diluted to […], followed by 4-fold serial dilutions with DMSO to a minimum concentration of 0.061 μM, and each concentration point was further diluted 50-fold with FBS-free RPMI1640 medium. If the IC50 of the compound is very low, the initial concentration of the compound can be reduced. After overnight, 3 μL of the compound diluted in the medium was added to each well, and the mixture was gently centrifuged to mix. The group without cells was used as a negative control (100% inhibition), and the group with 0.2% DMSO was used as a positive control (0% inhibition). The 384-well plate was placed in a 37° C., 5% CO2 incubator for further cultivation. After 48 hours, the plate was taken out and equilibrated to room temperature. 15 μl of CTG reagent was added to each well, the plate was shaken gently for 3 minutes to make sure that the cell lysis was carried out thoroughly, then the plate was kept for 10 minutes to stabilize the luminescence signal, then the luminescence signal was read by EnVision (Perkin Elmer).
# The inhibition percentage of the compounds to RS4;11 cell proliferation can be calculated using the following equation:
# Inhibition Percentage=100−100*(signal compound-signal negative control)/(signal positive control-signal negative control)
# as §1
# Y=Bottom+(Top−Bottom)/(1+10^((Log IC50−X)*slope factor))
# wherein, Y is the inhibition percentage, Bottom is the bottom plateau of the curve (the bottom plateau value of the S-shaped curve), Top is the top plateau of the curve (the top plateau value of the S-shaped curve), and X is the logarithm of the concentration of the compound to be tested.
# T2 sequence (Q07817 whole entry): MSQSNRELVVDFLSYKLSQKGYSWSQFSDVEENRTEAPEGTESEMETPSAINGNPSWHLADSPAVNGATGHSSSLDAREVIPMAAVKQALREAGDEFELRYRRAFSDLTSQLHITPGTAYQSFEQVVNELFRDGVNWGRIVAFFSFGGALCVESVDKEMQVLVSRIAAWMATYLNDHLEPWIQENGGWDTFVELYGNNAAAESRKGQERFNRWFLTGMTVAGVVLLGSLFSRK
# T1 sequence (P10415 whole entry): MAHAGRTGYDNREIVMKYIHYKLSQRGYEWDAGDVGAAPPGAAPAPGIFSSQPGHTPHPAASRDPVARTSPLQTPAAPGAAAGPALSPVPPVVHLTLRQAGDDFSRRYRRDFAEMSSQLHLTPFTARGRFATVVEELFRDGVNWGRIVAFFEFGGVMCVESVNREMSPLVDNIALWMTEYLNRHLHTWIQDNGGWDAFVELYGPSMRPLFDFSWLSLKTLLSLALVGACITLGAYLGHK
IC50 [1] [µM],IC50 [2] [µM],IC50 [3] [µM],SMILES
0.00524,> 1,0.032,C[C@@H]1CN(c2ccc(C(=O)NS(=O)(=O)c3ccc(NCC4CCOCC4)c([N+](=O)[O-])c3)c(Oc3cnc4[nH]ccc4c3)c2)CCN1CC1=C(c2ccc(Cl)cc2)CCC2(CC2)C1 [Example 38]
0.00316,> 1,0.016,C[C@@H]1CN(c2ccc(C(=O)NS(=O)(=O)c3cc(F)c(NCC4CCOCC4)c([N+](=O)[O-])c3)c(Oc3cnc4[nH]ccc4c3)c2)CCN1CC1=C(c2ccc(Cl)cc2)CC(C)(C)C2(CC2)C1 [Example 33]
0.00163,> 1,0.014,C[C@@H]1CCC(CN2CCN(c3ccc(C(=O)NS(=O)(=O)c4cc(F)c(NC[C@H]5COCCO5)c([N+](=O)[O-])c4)c(Oc4cnc5[nH]ccc5c4)c3)[C@H](C)C2)=C(c2ccc(Cl)cc2)C1 [Example 26]
0.0023,> 1,0.0057,"C[C@@H]1CN(c2ccc(C(=O)NS(=O)(=O)c3cc(F)c(NC[C@@H]4COCCO4)c([N+](=O)[O-])c3)c(Oc3cnc4[nH]ccc4c3)c2)CCN1CC1=C(c2ccc(Cl)cc2)CC(C)(C)CC1 [Example 55, N-((4-((((R)-1,4-dioxan-2-yl)methyl)amino)-3-fluoro-5-nitrophenyl)sulfonyl)-2-((1H-pyrrolo[2,3-b]pyridin-5-yl)oxy)-4-((R)-4-((4′-chloro-5,5-dimethyl-3,4,5,6-tetrahydro-[1,1′-biphenyl]-2-yl)methyl)-3-methylpiperazin-1-yl)benzamide]"
0.00235,> 1,0.0038,C[C@H]1CCC(CN2CCN(c3ccc(C(=O)NS(=O)(=O)c4cc(F)c(NCC5CCOCC5)c([N+](=O)[O-])c4)c(Oc4cnc5[nH]ccc5c4)c3)C[C@H]2C)=C(c2ccc(Cl)cc2)C1 [Example 14]
0.011,> 1,0.025,"C[C@@H]1CN(c2ccc(C(=O)NS(=O)(=O)c3ccc(NC[C@@H]4COCCO4)c([N+](=O)[O-])c3)c(Oc3cnc4[nH]ccc4c3)c2)CCN1CC1=C(c2ccc(Cl)cc2)CCC(C)(C)C1 [Example 54, N-((4-((((R)-1,4-dioxan-2-yl)methyl)amino)-3-nitrophenyl)sulfonyl)-2-((1H-pyrrolo[2,3-b]pyridin-5-yl)oxy)-4-((R)-4-((4′-chloro-4,4-dimethyl-3,4,5,6-tetrahydro-[1,1′-biphenyl]-2-yl)methyl)-3-methylpiperazin-1-yl)benzamide]"
0.00213,> 1,0.00425,"C[C@@H]1CCC(CN2CCN(c3ccc(C(=O)NS(=O)(=O)c4ccc(NCC5CCOCC5)c([N+](=O)[O-])c4)c(Oc4cnc5[nH]ccc5c4)c3)C[C@H]2C)=C(c2ccc(Cl)cc2)C1 [Example 19, 2-((1H-pyrrolo[2,3-b]pyridin-5-yl)oxy)-4-((R)-4-(((R)-4′-chloro-5-methyl-3,4,5,6-tetrahydro-[1,1′-biphenyl]-2-yl)methyl)-3-methylpiperazin-1-yl)-N-((3-nitro-4-(((tetrahydro-2H-pyran-4-yl)methyl)amino)phenyl)sulfonyl)benzamide]"
0.00256,> 1,0.0111,"C[C@@H]1CN(c2ccc(C(=O)NS(=O)(=O)c3ccc(NCC4CCOCC4)c([N+](=O)[O-])c3)c(Oc3cnc4[nH]ccc4c3)c2)CCN1CC1=C(c2ccc(Cl)cc2)CC(C)(C)CC1 [Example 2, (R)-2-((1H-pyrrolo[2,3-b]pyridin-5-yl)oxy)-4-(4-((4′-chloro-5,5-dimethyl-3,4,5,6-tetrahydro-[1,1′-biphenyl]-2-yl)methyl)-3-methylpiperazin-1-yl)-N-((3-nitro-4-(((tetrahydro-2H-pyran-4-yl)methyl)amino)phenyl)sulfonyl) benzamide]"
> 0.1,> 1,0.486,"C[C@H]1CN(c2ccc(C(=O)NS(=O)(=O)c3cc(F)c(NC[C@H]4COCCO4)c([N+](=O)[O-])c3)c(Oc3cnc4[nH]ccc4c3)c2)CCN1CC1=C(c2ccc(Cl)cc2)CC(C)(C)CC1 [Example 47, N-((4-((((S)-1,4-dioxan-2-yl)methyl)amino)-3-fluoro-5-nitrophenyl)sulfonyl)-2-((1H-pyrrolo[2,3-b]pyridin-5-yl)oxy)-4-((S)-4-((4′-chloro-5,5-dimethyl-3,4,5,6-tetrahydro-[1,1′-biphenyl]-2-yl)methyl)-3-methylpiperazin-1-yl) benzamide]"
0.0019,> 1,0.0051,"C[C@@H]1CN(c2ccc(C(=O)NS(=O)(=O)c3ccc(NC[C@@H]4COCCO4)c([N+](=O)[O-])c3)c(Oc3cnc4[nH]ccc4c3)c2)CCN1CC1=C(c2ccc(Cl)cc2)CC(C)(C)CC1 [Example 52, N-((4-((((R)-1,4-dioxan-2-yl)methyl)amino)-3-nitrophenyl)sulfonyl)-2-((1H-pyrrolo [2,3-b]pyridin-5-yl)oxy)-4-((R)-4-((4′-chloro-5,5-dimethyl-3,4,5,6-tetrahydro-[1,1′-biphenyl]-2-yl)methyl)-3-methylpiperazin-1-yl) benzamide]"
0.0128,> 1,0.042,C[C@@H]1CN(CC2=C(c3ccc(Cl)cc3)CC(C)(C)CC2)CCN1c1ccc(C(=O)NS(=O)(=O)c2cc(F)c(NCC3CCOCC3)c([N+](=O)[O-])c2)c(Oc2cnc3[nH]ccc3c2)c1 [Example 11]
